In ChEMBL document CHEMBL3593184, “Synthesis of (2-amino)ethyl derivatives of quercetin 3-O-methyl ether and their antioxidant and neuroprotective effects” (Bioorg Med Chem, 2015):

Tests used:
[1] = test system: Liver microsome; assay: Antioxidant activity in rat liver microsomes assessed as reduction in iron-ascorbic acid-induced lipid […] activity after 30 mins by TBARS assay; format: functional; conditions: 0.5 h
[2] = Antioxidant activity assessed as superoxide anion radical scavenging activity after 20 mins by xanthine/xanthine oxidase method; format: physicochemical
[3] = Antioxidant activity assessed as DPPH radical scavenging activity after 30 min; format: physicochemical; conditions: DPPH radical solution
[4] = test system: Rattus norvegicus; assay: (§1) Neuroprotective activity against middle cerebral artery occlusion-induced focal cerebral ischemia in Sprague-Dawley rat assessed as reduction in corrected total infarct volume at 10 mg/kg, iv administered 30 mins after MCA occlusion measured after 2 hrs of reperfusion by TTC staining (reference value: 163.2 +/- 9.4 mm'3); format: functional
[5] = test system: Rattus norvegicus; assay: Neuroprotective activity against middle cerebral artery occlusion-induced focal cerebral ischemia in Sprague-Dawley rat assessed as reduction in edema at 10 mg/kg, iv administered 30 mins after MCA occlusion measured after 2 hrs of reperfusion by TTC staining (reference value: 13 +/- 0.7 %); format: functional; set-up: scale not given: the % may be the effect or the level left
[6] = test system: Rattus norvegicus; assay: as §1, with “absolute” for “corrected total”, “volume in striatum” for “volume”, “41.9” for “163.2”, “29” for “9.4”; format: functional
[7] = test system: Rattus norvegicus; assay: as §1, with “absolute infarct” for “corrected”, “total” for “total infarct”, “237.4” for “163.2”, “13.1” for “9.4”; format: functional
[8] = Aqueous solubility of the compound at room temperature by HPLC; format: physicochemical; conditions: water
[9] = test system: Rattus norvegicus; assay: as §1, with “absolute” for “corrected total”, “volume in cortex” for “volume”, “195.6” for “163.2”, “11.5” for “9.4”; format: functional

`CCN(CC)CCOc1cc(O)cc2oc(-c3ccc(O)c(O)c3)c(OC)c(=O)c12` showed an IC50 [1] of 23.3 µM, an IC50 [2] of 6.53 µM and an IC50 [3] greater than 100 µM.
For `COc1c(-c2ccc(O)c(O)c2)oc2cc(OCCN3CCOCC3)cc(O)c2c1=O`, the IC50 [1] was 16.2 µM, the IC50 [2] was 7.41 µM and the IC50 [3] was 47.2 µM.
`O=C1O[C@H]([C@@H](O)CO)C(O)=C1O` [ASCORBIC ACID] showed an IC50 [2] greater than 50 µM and an IC50 [3] of 41 µM.
Work on `COc1c(-c2cc(O)c(O)c(O)c2)oc2cc(O)cc(OCCN3CCCC3)c2c1=O` yielded an IC50 [1] of 10.9 µM, an IC50 [2] greater than 100 µM and an IC50 [3] of 27 µM.
In the case of `COc1c(-c2ccc(O)c(O)c2)oc2cc(OCCN3CCCC3)cc(O)c2c1=O`, the IC50 [1] is reported as 21.8 µM, the IC50 [2] is reported as 11.4 µM and the IC50 [3] is reported as 18.9 µM.
`COc1c(-c2cc(O)c(O)c(O)c2)oc2cc(O)cc(OCCN3CCOCC3)c2c1=O` gave an IC50 [1] of 12 µM, an IC50 [2] greater than 100 µM and an IC50 [3] of 23.2 µM.
With `COc1c(-c2cc(O)c(O)c(O)c2)oc2cc(OCCN3CCCCC3)cc(O)c2c1=O` the IC50 [1] was 10.5 µM, the IC50 [2] was greater than 100 µM and the IC50 [3] was 26.3 µM.
In the case of `CCN(CC)CCOc1cc(O)cc2oc(-c3cc(O)c(O)c(O)c3)c(OC)c(=O)c12`, the IC50 [1] is reported as 11.2 µM, the IC50 [2] is reported as greater than 100 µM and the IC50 [3] is reported as 22.1 µM.
Compound `COc1c(-c2ccc(O)c(O)c2)oc2cc(O)cc(OCCN3CCCCC3)c2c1=O` has an IC50 [1] of 25.1 µM, an IC50 [2] of 5.8 µM and an IC50 [3] greater than 100 µM.
With `COc1c(-c2cc(O)c(O)c(O)c2)oc2cc(OCCN3CCOCC3)cc(O)c2c1=O` the IC50 [1] was 10.2 µM, the IC50 [2] was greater than 100 µM and the IC50 [3] was 26 µM.
`COc1c(-c2cc(O)c(O)c(O)c2)oc2cc(OCCN3CCCC3)cc(O)c2c1=O` gave an IC50 [1] of 10.1 µM, an IC50 [2] greater than 100 µM and an IC50 [3] of 16.8 µM.
Work on `CCN(CC)CCOc1cc(O)c2c(=O)c(OC)c(-c3ccc(O)c(O)c3)oc2c1` yielded an IC50 [1] of 15.8 µM, an IC50 [2] of 8.14 µM and an IC50 [3] of 27.4 µM.
In the case of `COc1c(-c2ccc(O)c(O)c2)oc2cc(O)cc(OCCN3CCOCC3)c2c1=O`, the IC50 [1] is reported as 37.4 µM, the IC50 [2] is reported as 11.2 µM and the IC50 [3] is reported as greater than 100 µM.
Compound `COc1c(-c2ccc(O)c(O)c2)oc2cc(O)cc(O)c2c1=O` [3-O-METHYLQUERCETIN] has an IC50 [1] of 19 µM, an IC50 [2] of 17.4 µM and an Activity [4] of 78.8 mm3. The Activity [5] was 5.5%, the Activity [6] was 27.2 mm3 and the IC50 [3] was 14.2 µM. For the same compound, the Activity [7] was 108.8 mm3, the solubility [8] was greater than 50 mM and the Activity [9] was 79.9 mm3.
With `CCN(CC)CCOc1cc(O)c2c(=O)c(OC)c(-c3cc(O)c(O)c(O)c3)oc2c1.Cl` the IC50 [1] was 11.5 µM, the IC50 [2] was greater than 100 µM and the Activity [4] was 108.9 mm3. The Activity [5] was 9.4%, the Activity [6] was 39.3 mm3 and the IC50 [3] was 22.9 µM. It also gave an Activity [7] of 164 mm3, a solubility [8] greater than 50 mM and an Activity [9] of 123.4 mm3.
Compound `COc1c(-c2cc(O)c(O)c(O)c2)oc2cc(O)cc(OCCN3CCCCC3)c2c1=O` has an IC50 [1] of 11.9 µM, an IC50 [2] greater than 100 µM and an IC50 [3] of 32.4 µM.
In the case of `COc1c(-c2ccc(O)c(O)c2)oc2cc(O)cc(OCCN3CCCC3)c2c1=O`, the IC50 [1] is reported as 23.3 µM, the IC50 [2] is reported as 4.58 µM and the IC50 [3] is reported as 84 µM.
`COc1c(-c2ccc(O)c(O)c2)oc2cc(OCCN3CCCCC3)cc(O)c2c1=O.Cl` gave an IC50 [1] of 19.2 µM, an IC50 [2] of 8.15 µM and an Activity [4] of 92.1 mm3. For the same compound, the Activity [5] was 6.7%, the Activity [6] was 30.1 mm3 and the IC50 [3] was 20.7 µM. For the same compound, the Activity [7] was 128.9 mm3, the solubility [8] was greater than 50 mM and the Activity [9] was 93.6 mm3.
